Laboratory results reported in patent US20030129193A1 (priority 2001, published 2003).

Tests used:
[1] = test system: HT29 human colorectal carcinoma; assay: Anti-tumor effects and tumor necrosis, HT29; assay type: in vivo, BALB/c nu/nu mice
[2] = test system: L540rec human Hodgkin's lymphoma tumors; assay: Treatment studies, L540 Hodgkin's tumor necrosis; assay type: in vivo, SCID mice
Experimental: For in vivo studies, a metastasizing mouse model for human Hodgkin's lymphoma was used. 1×10^7 L540rec cells were injected subcutaneously into the right flank of SCID mice resulting in a subcutaneous tumor with lymph node metastases in the regional lymph node stations. Subcutanous tumors were measured with a caliper in three perpendicular directions a, b, and c, and volumes calculated according to the formula V=π/6×a×b×c.
Treatment was initiated when subcutaneous tumors reached a size of 150 to 300 μl. Reagents were administered into the lateral tail vein.
Mice were closely observed after treatment for clinical signs of toxicity and clinical status was documented at defined time points (5 minutes, 10 minutes, 15 minutes, 30 minutes, 1 hour, 2 hours, 24 hours, 48 hours, 72 hours). Blood samples were taken from the tail vein at 1 hour, 2 hours and 24 hours to measure TNFα blood levels. […]
Tissue samples harvested at the time of autopsy were fixed in 3% NBF (normal buffered formalin) and embedded in paraffin wax. […] Tissue sections were analyzed on a light microscope by two independent investigators and histological findings were documented. Tumor sections with necrotic areas were scanned with a GS-700 imaging densitometer (Biorad, Hercules, Calif.) and areas of necrosis were calculated as % of total section area. […]

[3] = test system: 3LL mouse lung carcinoma; assay: In vivo tumor thrombosis, 3LL; set-up: species or system C57BL/6 mice; conditions: large (>800 mm^3) 3LL tumors
From the text: Tumor test systems were of four types: i) 3LL mouse lung carcinoma growing subcutaneously in C57BL/6 mice; ii) C1300 mouse neuroblastoma growing subcutaneously in BALB/c nu/nu mice; iii) HT29 human colorectal carcinoma growing subcutaneously in BALB/c nu/nu mice; and iv) C1300 Muγ mouse neuroblastoma growing subcutaneously in BALB/c nu/nu mice. The C1300 Muγ tumor is an interferon-γ secreting transfectant derived from the C 1300 tumor (Watanabe et al., 1989).
To establish tumors, 10^6 to 1.5×10^7 tumor cells were injected subcutaneously into the right anterior flank of the mice. When tumors had grown to various sizes, mice were randomly assigned to different study groups. […] Fab′, or bispecific antibody. Other mice received equivalent quantities IgG, Fab′ or bispecific antibody alone. The injections were performed slowly into one of the tail veins over approximately 45 seconds, usually followed by 200 μl of saline.
Twenty-four hours after being injected with tTF or immunoglobulin-tTF conjugates, the mice were anesthetized with metophane and were exsanguinated by perfusion with heparinized saline. Tumors and normal tissues were excised and immediately fixed in 3% (v/v) formalin. Paraffin sections were cut and stained with hematoxylin and eosin. Blood vessels having open lumens containing erythrocytes and blood vessels containing thrombi were counted. […]

Substance: tTF: extracellular domain of the mature Tissue Factor protein (amino acid 1-219)
- growth discontinued after treatment ([1]; large (1200 mm^3) tumors, i.v.): about 7 days
- necrosis in tumor sections ([1]; small HT29 tumors, single agents, 24 hours): some necrosis
- tumor tissue necrosis ([2]; 4 μg or 16 μg endotoxin-free tTF alone): 0%
- % tumor necrosis ([2]; Table 2, tTF alone): 4%
- tumor vessels thrombosed, average [3]: 62%
